These results are taken from ChEMBL document CHEMBL1147966, “Remarkable drug-release enhancement with an elimination-based AB3 self-immolative dendritic amplifier” (Bioorg Med Chem, 2007).

For experiment [1], the system named is MOLT-3. Nature of the experiment: Antitumor activity against human MOLT3 cells in absence of Penicillin-G-amidase after 72 hrs by XTT assay. The class given is functional, cell-based. Particulars: MOLT-3, 72 h.
Experiment [2] relates to MOLT-3. Description: Antitumor activity against human MOLT3 cells in presence of Penicillin-G-amidase after 72 hrs by XTT assay. The class given is functional, cell-based. Particulars: MOLT-3, 72 h. Background: Formazan colour is commonly taken as a measure of viable cells.

The IC50 is the concentration that gives 50% inhibition.

As for `O=C(Cc1ccccc1)Nc1ccc(COC(=O)Nc2c(COC(=O)NC(Cc3ccc(N(CCCl)CCCl)cc3)C(=O)O)cc(COC(=O)NC(C(=O)O)c3ccc(N(CCCl)CCCl)cc3)cc2COC(=O)NC(Cc2ccc(N(CCCl)CCCl)cc2)C(=O)O)cc1` (stereo not given), the IC50 was 100 µM with MOLT-3 [1] and 0.5 µM in the experiment on MOLT-3 [2].
Taken in the same sequence, the figures for `CN(CCN(C)C(=O)Oc1c(COC(=O)NC(Cc2ccc(N(CCCl)CCCl)cc2)C(=O)O)cc(COC(=O)NC(C(=O)O)c2ccc(N(CCCl)CCCl)cc2)cc1COC(=O)NC(Cc1ccc(N(CCCl)CCCl)cc1)C(=O)O)C(=O)OCc1ccc(NC(=O)Cc2ccccc2)cc1` (stereo not given) were 100 µM and 6 µM.
Turning to `N[C@@H](Cc1ccc(N(CCCl)CCCl)cc1)C(=O)O` [MELPHALAN], in the experiment with MOLT-3 [2], the IC50 amounted to 0.3 µM.
